Laboratory results as given in ChEMBL document CHEMBL1128064, “Discovery of L-740,515, a potent thienopyridine cysLT1 receptor (LTD4 receptor) antagonist” (Bioorg Med Chem Lett, 1995).

How the values were obtained:
[1] = Clearance was estimated in two squirrel monkeys after iv administration at 5 mg/kg; assay type: ADME, organism-based; parameters: dose 5 mg/kg, route intravenous; conditions: in vivo
[2] = Bioavailability in squirrel monkey (dose 5 mg/kg); assay type: ADME, organism-based, Saimiri sciureus; conditions: in vivo
[3] = molecular target: Cysteinyl leukotriene receptor 1 (Cavia porcellus); assay: Inhibition of binding of [3H]LTD4 to guinea pig lung membrane
[4] = molecular target: Cysteinyl leukotriene receptor 1 (Cavia porcellus); assay: Inhibition of binding of [3H]LTD4 to guinea pig lung membrane supplemented with 0.05% human serum albumin(HSA)
[5] = molecular target: T1, Cysteinyl leukotriene receptor 1 (Homo sapiens, UniProt Q9Y271); assay: Inhibition of binding of [ H]-LTD4 to DMSO differentiated U937 cell membranes; parameters: species or system U-937
T1 sequence (Q9Y271 whole entry): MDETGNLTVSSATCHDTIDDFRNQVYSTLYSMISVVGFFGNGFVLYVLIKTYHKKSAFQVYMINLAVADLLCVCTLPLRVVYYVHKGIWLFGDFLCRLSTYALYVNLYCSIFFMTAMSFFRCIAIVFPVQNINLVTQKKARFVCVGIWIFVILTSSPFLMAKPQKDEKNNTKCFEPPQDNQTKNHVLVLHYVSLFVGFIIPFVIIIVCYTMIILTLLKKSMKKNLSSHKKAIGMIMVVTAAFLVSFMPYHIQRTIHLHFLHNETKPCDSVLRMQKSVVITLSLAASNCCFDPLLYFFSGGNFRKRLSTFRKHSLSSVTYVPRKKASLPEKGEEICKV

[6] = Terminal half life of the compound.; assay type: ADME
[7] = Compound was tested on PMN membranes using LTD4 binding assays; assay type: functional, Homo sapiens
[8] = Compound was tested on dU937 cell membranes using LTC4 binding assays; assay type: functional, Homo sapiens

clearance [1] [mL/min/kg] | bioavailability [2] [%] | IC50 [3] [nM] | IC50 [4] [nM] | IC50 [5] [nM] | half-life [6] [h] | IC50 [7] [nM] | IC50 [8] [nM] | Structure (SMILES)
0.9 | 2 | 4.12 | 1.21 | 6.42 | 11 |  |  | O=C(O)CC1(CS[C@H](CCc2ccccc2C(O)(C(F)(F)F)C(F)(F)F)c2cccc(/C=C/c3ccc4sc(Cl)c(Cl)c4n3)c2)CC1
6.6 | 35 | 0.56 | 0.2 | 0.38 |  |  |  | CC(C)(O)c1ccc(CC[C@@H](SCC2(CC(=O)O)CC2)c2cccc(/C=C/c3ccc4sc(Cl)c(Cl)c4n3)c2)cc1
2.6 | 13 | 0.44 | 0.24 | 0.47 |  |  |  | O=C(O)CC1(CS[C@H](CCc2cccc(C3(O)CCC3)c2)c2cccc(/C=C/c3ccc4sc(Cl)c(Cl)c4n3)c2)CC1
 |  | > 150 | > 150 | > 150 |  |  |  | CC(C)(O)c1ccccc1CC[C@@H](SCC1(CC(=O)O)CC1)c1cccc(COc2ccc3sc(Cl)c(Cl)c3n2)c1
1.61 | 25 |  |  |  | 2.5 |  |  | CC(C)(O)c1ccccc1CC[C@@H](SCC1(CC(=O)O)CC1)c1cccc(/C=C/c2ccc3sc(F)c(F)c3n2)c1
1.2 | 31 |  |  |  |  |  |  | CC(C)(O)c1ccccc1CC[C@@H](SCC1(CC(=O)O)CC1)c1cccc(/C=C/c2ccc3sc(Cl)cc3n2)c1
1 | 22 | 0.74 | 0.34 | 1.05 |  |  |  | O=C(O)CC1(CS[C@H](CCc2ccccc2C2(O)CCC2)c2cccc(/C=C/c3ccc4sc(Cl)c(Cl)c4n3)c2)CC1
4.7 | 15 | 0.58 | 0.29 | 0.65 | 2 |  |  | O=C(O)CC1(CS[C@H](CCc2ccc(C3(O)CCC3)cc2)c2cccc(/C=C/c3ccc4sc(Cl)c(Cl)c4n3)c2)CC1
1.6 | 3 | 1.95 | 1.03 | 4.7 | 5.1 |  |  | O=C(O)CC1(CS[C@H](CCc2ccc(Br)cc2)c2cccc(/C=C/c3ccc4sc(Cl)c(Cl)c4n3)c2)CC1
 |  | 10.9 | 9.12 | 15.7 |  |  |  | CC(C)(O)c1ccccc1CC[C@@H](SCC1(CC(=O)O)CC1)c1cccc(C2CC2c2ccc3sc(Cl)c(Cl)c3n2)c1 (some centres not stated)
0.39 | 13 | 0.54 | 1.58 | 1.91 |  |  |  | CC(C)(O)c1ccccc1CC[C@@H](SCC1(CC(=O)O)CC1)c1cccc(/C=C/c2ccc3scc(Cl)c3n2)c1
1.4 | 4 | 3.84 | 1.43 | 8.67 |  |  |  | O=C(O)CC1(CS[C@H](CCc2ccc(C(F)(F)F)cc2)c2cccc(/C=C/c3ccc4sc(Cl)c(Cl)c4n3)c2)CC1
0.46 | 3 | 2.6 | 1.93 | 2.43 | 8.8 |  |  | O=C(O)CC1(CS[C@H](CCc2ccccc2Br)c2cccc(/C=C/c3ccc4sc(Cl)c(Cl)c4n3)c2)CC1
 |  | 0.42 | 2.2 | 2.01 |  |  |  | CC(C)(O)c1ccccc1CC[C@@H](SCC1(CC(=O)O)CC1)c1cccc(OCc2ccc3sc(Cl)c(Cl)c3n2)c1
3.5 |  | 0.48 | 0.48 | 0.72 |  |  |  | O=C(O)CC1(CS[C@H](CCc2ccccc2CO)c2cccc(/C=C/c3ccc4sc(Cl)c(Cl)c4n3)c2)CC1
 |  | 1.31 | 20.4 | 8.49 |  |  |  | CC(C)(O)c1ccccc1CC[C@@H](SCC1(CC(=O)O)CC1)c1cccc(/C=C/c2ccc3sccc3n2)c1
1.8 | 13 | 0.34 | 0.37 | 1.63 | 4 |  |  | O=C(O)CC1(CS[C@H](CCc2ccccc2)c2cccc(/C=C/c3ccc4sc(Cl)c(Cl)c4n3)c2)CC1
0.57 | 29 | 0.89 | 0.34 | 0.55 | 4.2 | > 3000 | > 46000 | CC(C)(O)c1ccccc1CC[C@@H](SCC1(CC(=O)O)CC1)c1cccc(/C=C/c2ccc3sc(Cl)c(Cl)c3n2)c1
0.4 | 1 |  |  |  | 6.1 |  |  | O=C(O)CC1(CS[C@H](CCc2ccccc2C(F)(F)F)c2cccc(/C=C/c3ccc4sc(Cl)c(Cl)c4n3)c2)CC1
1.8 | 5 | 1.09 | 0.65 | 2.16 |  |  |  | O=C(O)CC1(CS[C@H](CCc2ccc(F)cc2)c2cccc(/C=C/c3ccc4sc(Cl)c(Cl)c4n3)c2)CC1
